≈ marks a conversion by molar mass, not a printed value.
Experiments:
[1] = target: Tubulin alpha chain (Sus scrofa) (UniProt P02550); experiment: Tested for inhibitory concentration against […]-induced depolymerization of microtubules; format: functional
[2] = Cytotoxicity against human epidermoid carcinoma KB cells; format: functional, cell-based
L1210 = experiment: Cytotoxicity against murine leukemia L1210 cells; format: functional, cell-based, Mus musculus; details: Mus musculus, L1210; read-out: IC50
[3] = Vincristine (VCR) accumulation in multidrug resistant human ovarian cancer 2780 AD cells at a concentration 1 ug/mL; format: functional
[4] = Vincristine (VCR) accumulation in multidrug resistant human ovarian cancer 2780 AD cells at a concentration 10 ug/mL; format: functional

Tubulin alpha chain (Sus scrofa), sequence (P02550 whole entry, looked up): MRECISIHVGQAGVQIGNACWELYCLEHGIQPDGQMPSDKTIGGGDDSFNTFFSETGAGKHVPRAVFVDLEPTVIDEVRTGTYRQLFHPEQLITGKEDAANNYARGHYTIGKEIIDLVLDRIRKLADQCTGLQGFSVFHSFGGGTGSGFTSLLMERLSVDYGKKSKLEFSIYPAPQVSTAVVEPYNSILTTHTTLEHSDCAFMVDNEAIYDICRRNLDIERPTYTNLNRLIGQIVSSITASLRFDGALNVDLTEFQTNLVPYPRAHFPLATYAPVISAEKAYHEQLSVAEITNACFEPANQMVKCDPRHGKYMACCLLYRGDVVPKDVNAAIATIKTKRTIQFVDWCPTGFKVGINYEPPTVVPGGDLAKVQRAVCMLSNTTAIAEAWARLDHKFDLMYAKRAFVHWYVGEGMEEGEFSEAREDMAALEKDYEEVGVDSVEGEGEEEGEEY

| Concentration [1] [µM] | SMILES | IC50 [2] [µg/mL] | IC50 (L1210) [µg/mL] | vincristine accumulation (% of control) [3] [%] | vincristine accumulation (% of control) [4] [%] |
| --- | --- | --- | --- | --- | --- |
| 10 | CC(=O)O[C@H]1C(=O)[C@@]2(C)[C@H]([C@H](OC(=O)c3ccccc3)[C@]3(O)C[C@H](OC(=O)[C@H](O)[C@@H](NC(=O)c4ccccc4)c4ccccc4)C(C)=C1C3(C)C)[C@]1(OC(C)=O)CO[C@@H]1C[C@@H]2O |  |  |  |  |
|  | C=C1[C@@H](O)C[C@H](OC(C)=O)[C@@]2(C)[C@@H](OC(C)=O)[C@H](OC(C)=O)C3=C(C)C(=O)C[C@@H]([C@@H](OC(C)=O)[C@H]12)C3(C)C | > 10 | > 10 | 141 | 257 |
|  | CC(=O)O[C@@]12CO[C@@H]1C[C@@H](O)[C@@]1(C)C(=O)[C@H](O)C3=C(C)[C@@H](OC(=O)[C@H](O)C(NC(=O)c4ccccc4)c4ccccc4)C[C@@](O)([C@@H](OC(=O)c4ccccc4)[C@H]21)C3(C)C (stereo partly specified) | 0.013 (≈ 0.016 µM) | 0.71 (≈ 0.875 µM) | 192 | 218 |
|  | CC(=O)O[C@H]1C[C@@]2(O)[C@H]3OC[C@]4(OC(C)=O)[C@H](O)C[C@H](OC(C)=O)[C@](C)([C@H]34)[C@@H](OC(C)=O)[C@H](OC(C)=O)C(=C1C)C2(C)C | 8.8 (≈ 14.4 µM) | 4.5 (≈ 7.37 µM) | 167 | 234 |
|  | C=C1[C@@H](OC(=O)/C=C/c2ccccc2)C[C@H](OC(C)=O)[C@@]2(COC(=O)c3ccccc3)[C@@H](OC(C)=O)[C@H](OC(C)=O)[C@]3(O)[C@@]4(C)CO[C@]3(C)C(=O)C[C@H]4[C@@H](OC(C)=O)[C@H]12 | > 10 | > 10 | 169 | 537 |
|  | C=C1[C@@H](OC(=O)/C=C/c2ccccc2)CC[C@@]2(C)[C@@H](O)[C@H](OC(C)=O)C3=C(C)C(=O)C[C@@H]([C@@H](OC(C)=O)[C@H]12)C3(C)C | 0.17 (≈ 0.301 µM) | 1.1 (≈ 1.95 µM) | 173 | 372 |

Reference: ChEMBL document CHEMBL1130376, “Effects of taxoids from Taxus cuspidata on microtubule depolymerization and vincristine accumulation in MDR cells” (Bioorg Med Chem Lett, 1997)
